Structures can show the parent of a compound that is named as a salt.
Assays:
Type in all cases: in vivo
[1] = tested on: Puccinia recondita var. tritici; assay: Wheat leaf rust control on sprayed wheat seedlings (Example 79); conditions: 100 ppm spray, day before inoculation; for pest or weed control at 100 ppm: Puccinia recondita, 168 h
Protocol: The compounds of this invention were dissolved in acetone in an amount equal to 6% of the final volume and then suspended at a concentration of 100 ppm in purified water containing 250 ppm of the surfactant TREM 014 (polyhydric alcohol esters). These suspensions were sprayed to the point of run-off on wheat seedlings. The following day, the plants were inoculated with a spore suspension of Puccinia recondita var. tritici, causal agent of wheat leaf rust, and incubated in a saturated humidity chamber at 20° for 24 hours and then in a growth room for an additional 7 days, when disease ratings were made. Treated plants from successful treatments had few or no rust pustules while the untreated plants had numerous rust pustules on each leaf.

Erysiphe cichoracearum = assay: Cucumber powdery mildew control on sprayed cucumber seedlings (Example 80); conditions: 100 ppm spray, day before inoculation; for pest or weed control at 100 ppm: Golovinomyces cichoracearum, 168 h
Protocol: These suspensions were sprayed to the point of run-off, on cucumber seedlings. The following day, the plants were inoculated with a spore suspension of the fungus Erysiphe cichoracearum, causal agent of cucumber powdery mildew, and incubated in a growth room for 7 days. Disease ratings were then made. Treated plants from successful treatments had little or no powdery mildew in contrast to untreated plants which were covered with powdery mildew. Phytotoxicity in the form of growth reduction or hormonal effects was observed on some of the plants in association with disease control.

Venturia inaequalis = assay: Apple scab control on sprayed apple seedlings (Example 82); conditions: 100 ppm spray, day before inoculation; for pest or weed control at 100 ppm: Venturia inaequalis
Protocol: These suspensions were sprayed to the point of run-off on apple seedlings. The following day, the plants were inoculated with a spore suspension of the fungus Venturia inaequalis, causal agent of apple scab, and incubated in a saturated humidity chamber at 20° for 24 hours and then in a growth room for an additional 10-12 days. Treated plants from successful treatments had fewer apple scab lesions when compared to untreated plants which were covered with scab lesions. Phytotoxicity expressed as growth reduction was observed on some of the plants in association with disease control.

Helminthosporium maydis = assay: Southern corn leaf blight control on sprayed corn seedlings (Example 83); conditions: 100 ppm spray, day before inoculation; for pest or weed control at 100 ppm: Bipolaris maydis, 192 h
Protocol: The compounds of the previous examples were again dissolved in acetone in an amount equal to 6% of the final volume and then suspended at a concentration of 100 ppm in purified water containing 250 ppm of the surfactant TREM 014 (polyhydric alcohol esters). These suspensions were sprayed to the point of run-off on corn seedlings. The following day, the plants were inoculated with a spore suspension of Helminthosporium maydis, causal agent of southern corn leaf blight, and incubated in a saturated humidity chamber at 20° for 24 hours and then in a growth room for an additional 7 days, when disease ratings were made. Treated plants from successful treatments had few or no lesions while the untreated plants had numerous lesions on each leaf. Phytotoxicity expressed as growth reduction was observed on some of the plants in association with disease control.

Cercospora arachidicola = assay: Peanut early leafspot control on sprayed peanut seedlings (Example 84); conditions: 100 ppm spray, day before inoculation; for pest or weed control at 100 ppm: Mycosphaerella arachidis, 360 h, read-out: % Control Peanut Easly Leafspot
Protocol: These suspensions were sprayed to the point of run-off on peanut seedlings. The following day, the plants were inoculated with a spore suspension of Cercospora arachidicola, causal agent of peanut early leafspot, and incubated in a saturated humidity chamber at 27° for 24 hours and then in a growth room for an additional 14 days, when disease ratings were made. Treated plants from successful treatments had few or no leafspots while the untreated plants had numerous leafspots.

Rhizoctonia solani = assay: Rice sheath blight control on sprayed rice seedlings (Example 87); conditions: 100 ppm spray, day before inoculation; for pest or weed control at 100 ppm: Rhizoctonia solani, 168 h
Protocol: The compounds of the previous examples were again dissolved in acetone in an amount equal to 6% of the final volume and then suspended at a concentration of 100 ppm in purified water containing 250 ppm of the surfactant TREM 014 (polyhydric alcohol esters). This suspension was sprayed to the point of run-off on rice seedlings. The following day, the plants were inoculated with a mixture of bran and the mycelium of Rhizoctonia solani, causal agent of sheath blight of rice, and incubated in a growth room for 7 days. Disease ratings were then made. Treated plants from successful treatments had little sheath blight in contrast to untreated plants which were covered with sheath blight.

Pyricularia oryzae = assay: whole plant or invertebrate; conditions: for % Control of Rice Blast: 100 ppm spray, day before inoculation; for pest or weed control at 100 ppm: Pyricularia oryzae, 168 h, read-out: % Control of Rice Blast, 100 ppm spray, day before inoculation
Phytophthora infestans = assay: whole plant or invertebrate; conditions: for % Control of Tomato Late Blight: 100 ppm spray, day before inoculation; for pest or weed control at 100 ppm: Phytophthora infestans, in Solanum lycopersicum, 168 h, read-out: % Control of Tomato Late Blight, 100 ppm spray, day before inoculation

Row | Compound | % Control Wheat Rust [1] [%] | % Control Cucumber Powdery Mildew (Erysiphe cichoracearum) [%] | % Control Apple Scab (Venturia inaequalis) [%] | % Control of Southern Corn Leaf Blight (Helminthosporium maydis) [%] | % Control Peanut Easly Leafspot (Cercospora arachidicola) [%] | % Control of Rice Sheath Blight (Rhizoctonia solani) [%] | % Control of Rice Blast (Pyricularia oryzae) [%] | % Control of Tomato Late Blight (Phytophthora infestans) [%] | pest or weed control at 100 ppm [1] [%] | pest or weed control at 100 ppm (Erysiphe cichoracearum) [%] | pest or weed control at 100 ppm (Venturia inaequalis) [%] | pest or weed control at 100 ppm (Helminthosporium maydis) [%] | pest or weed control at 100 ppm (Cercospora arachidicola) [%] | pest or weed control at 100 ppm (Rhizoctonia solani) [%] | pest or weed control at 100 ppm (Pyricularia oryzae) [%] | pest or weed control at 100 ppm (Phytophthora infestans) [%]
1 | C[Si](C)(Cn1cncn1)c1ccc(-c2ccccc2)cc1.[Cl][Cu][Cl] [(1,1'-Biphenyl-4-yl)dimethyl(1H-1,2,4-triazol-1-ylmethyl)silane, 1:1 complex with cupric chloride] | 100 | 100 | 100 | 80 | 100 | 0 | 100 | 90 | – | – | – | – | – | – | – | –
2 | C[Si](C)(Cn1cncn1)c1ccc(-c2ccc(Br)cc2)cc1 [(4'-Bromo-1,1'-biphenyl-4-yl)dimethyl(1H-1,2,4-triazol-1-ylmethyl)silane] | – | – | – | – | – | – | – | – | 100 | 100 | 100 | 70 | 100 | 90 | 90 | 30
3 | CSc1ccc([Si](C)(C)Cn2cncn2)cc1 [Dimethyl(4-methylthiophenyl)(1H-1,2,4-triazol-1-ylmethyl)silane] | – | – | – | – | – | – | – | – | 0 | 100 | 60 | 80 | 0 | 0 | 0 | 0
4 | C[Si](Cn1cncn1)(c1ccccc1)c1ccc(Br)cc1 (stereo not drawn) [4-Bromophenyl(methyl)phenyl(1H-1,2,4-triazol-1-ylmethyl)silane] | – | – | – | – | – | – | – | – | 0 | 100 | 100 | 80 | 100 | 90 | 80 | 0
5 | C[Si](C)(Cn1cncn1)c1ccc(-c2ccccc2)cc1 [(1,1'-Biphenyl-4-yl)dimethyl(1H--1,2,4-triazol-1-ylmethyl)si] [4-Dodecylbenzenesulfonate Salt of (1,1'-Biphenyl-4-yl)dimethyl(1H-1,2,4-triazol-1-ylmethyl)silane] | – | – | – | 100 | – | – | – | – | – | – | – | – | – | – | – | –
6 | 2:1 complex of [bis(4-Fluorophenyl)]methyl(1H-1,2,4-triazol-1-ylmethyl)silane and Curpic Chloride | 100 | 100 | – | 0 | 100 | 0 | 100 | 40 | – | – | – | – | – | – | – | –
7 | C[Si](C)(Cn1cncn1)c1cc(Cl)cc(Cl)c1 [(3,5-Dichlorophenyl)dimethyl(1H-1,2,4-triazol-1-ylmethyl)silane] | – | – | – | – | – | – | – | – | 80 | 0 | 0 | 40 | 0 | 0 | 0 | 0
8 | Cc1ncnn1C[Si](C)(C)c1ccc(-c2ccccc2)cc1 [(1,1'-Biphenyl-4-yl)dimethyl(5-methyl-1H-1,2,4-triazol-1-ylmethyl)silane] | – | – | – | – | – | – | – | – | 100 | 100 | 100 | 80 | 100 | 0 | 0 | 80
9 | (1,1'-Biphenyl-4-yl)dimethyl(1H-1,2,4-triazol-1-ylmethyl)silane, 2:1 complex with cupric chloride | 100 | 100 | 100 | 80 | 100 | 80 | 0 | 0 | – | – | – | – | – | – | – | –
10 | C[Si](C)(Cn1cncn1)c1ccc(-c2ccccc2)cc1.[Cl][Cu] [1:1 complex of (1,1'-Biphenyl-4-yl)dimethyl(1H-1,2,4-triazol-1-ylmethyl)silane and Cuprous Chloride] | 0 | 100 | 100 | 100 | 100 | 90 | 100 | 100 | – | – | – | – | – | – | – | –
11 | CC(C)(C)O[Si](Cn1cncn1)(c1ccc(F)cc1)c1ccc(F)cc1 [(1,1-Dimethylethoxy)[bis(4-fluorophenyl)](1H-1,2,4-triazol-1-ylmethyl)silane] | – | – | – | – | – | – | – | – | – | 100 | – | 0 | – | – | – | –
12 | C[Si](Cn1cncn1)(c1ccc(Cl)cc1)c1ccccc1Cl (stereo not drawn) [2-Chlorophenyl(4-chlorophenyl)methyl(1H-1,2,4-triazol-1-ylmethyl)silane] | – | – | – | – | – | – | – | – | 100 | 100 | 90 | 60 | 90 | 70 | – | 0
13 | C[Si](Cn1cncn1)(c1ccc(F)cc1)c1ccc(-c2ccccc2)cc1 (stereo not drawn) [(1,1'-Biphenyl-4-yl)(4-fluorophenyl)methyl(1H-1,2,4-triazol-1-ylmethyl)silane] | – | – | – | – | – | – | – | – | 100 | 100 | 100 | 80 | 100 | 0 | – | 0
14 | C[Si](Cn1cncn1)(c1ccc(F)cc1)c1ccc(F)cc1.[Cl][Cu] [[bis(4-Fluorophenyl)]methyl(1H-1,2,4-triazol-1-ylmethyl)silane, 1:1 complex with cuprous chloride] | 90 | 100 | – | 0 | 100 | 90 | 90 | 0 | – | – | – | – | – | – | – | –
15 | CC(C)O[Si](C)(Cn1cncn1)c1ccc(F)cc1 (stereo not drawn) [(4-Fluorophenyl)methyl(2-propoxy)(1H-1,2,4-triazol-1-ylmethyl)silane] | – | – | – | – | – | – | – | – | – | 100 | – | 0 | – | – | – | –
16 | CC(n1cncn1)[Si](C)(c1ccc(F)cc1)c1ccc(F)cc1 (stereo not drawn) [bis(4-Fluorophenyl)methyl[1-(1H-1,2,4-triazol-1-yl)ethyl]silane] | – | – | – | – | – | – | – | – | 100 | 100 | 100 | – | 100 | 80 | 0 | 0
17 | CC(C)O[Si](Cn1cncn1)(OC(C)C)c1ccccc1 [Phenylbis(2-propoxy)(1H-1,2,4-triazol-1-ylmethyl)silane] | – | – | – | – | – | – | – | – | 0 | 100 | 0 | 0 | 0 | 0 | – | 0

Source: patent publication US4510136A (priority 1983, dated 1985)
